From ChEMBL document CHEMBL4507280 (2021)

What was measured:
[1] = tested on: Tyrosine-protein kinase ABL1 (Homo sapiens), P00519 [F317I]; conditions: Compound concentration 1000.0 nM
[2] = tested on: Tyrosine-protein kinase ABL1 (Homo sapiens), P00519 [M351T]; conditions: Compound concentration 1000.0 nM
[3] = molecular target: Activin receptor type-2A (Homo sapiens) (UniProt P27037); conditions: Compound concentration 1000.0 nM
[4] = molecular target: Aurora kinase B (Homo sapiens) (UniProt Q96GD4); conditions: Compound concentration 1000.0 nM
[5] = molecular target: Tyrosine-protein kinase receptor UFO (Homo sapiens) (UniProt P30530); conditions: Compound concentration 1000.0 nM
[6] = molecular target: Serine/threonine-protein kinase B-raf (Homo sapiens) (UniProt P15056); conditions: Compound concentration 1000.0 nM
[7] = molecular target: Calcium/calmodulin-dependent protein kinase type II subunit beta (Homo sapiens) (UniProt Q13554); conditions: Compound concentration 1000.0 nM
[8] = molecular target: Calcium/calmodulin-dependent protein kinase type II subunit gamma (Homo sapiens) (UniProt Q13555); conditions: Compound concentration 1000.0 nM
[9] = molecular target: Cyclin-dependent kinase 4 (Homo sapiens) (UniProt P11802); conditions: Compound concentration 1000.0 nM
[10] = molecular target: Cyclin-dependent kinase-like 3 (Homo sapiens) (UniProt Q8IVW4); conditions: Compound concentration 1000.0 nM
[11] = molecular target: Casein kinase I isoform gamma-3 (Homo sapiens) (UniProt Q9Y6M4); conditions: Compound concentration 1000.0 nM
[12] = molecular target: Casein kinase II subunit alpha' (Homo sapiens) (UniProt P19784); conditions: Compound concentration 1000.0 nM
[13] = molecular target: Megakaryocyte-associated tyrosine-protein kinase (Homo sapiens) (UniProt P42679); conditions: Compound concentration 1000.0 nM
[14] = molecular target: Myotonin-protein kinase (Homo sapiens) (UniProt Q09013); conditions: Compound concentration 1000.0 nM
[15] = molecular target: Eukaryotic translation initiation factor 2-alpha kinase 1 (Homo sapiens) (UniProt Q9BQI3); conditions: Compound concentration 1000.0 nM
[16] = molecular target: Fibroblast growth factor receptor 4 (Homo sapiens) (UniProt P22455); conditions: Compound concentration 1000.0 nM
[17] = tested on: Receptor-type tyrosine-protein kinase FLT3 (Homo sapiens), P36888 [K663Q]; conditions: Compound concentration 1000.0 nM
[18] = molecular target: Glycogen synthase kinase-3 alpha (Homo sapiens) (UniProt P49840); conditions: Compound concentration 1000.0 nM
[19] = tested on: Mast/stem cell growth factor receptor Kit (Homo sapiens), P10721 [A829P]; conditions: Compound concentration 1000.0 nM
[20] = molecular target: Tyrosine-protein kinase Lck (Homo sapiens) (UniProt P06239); conditions: Compound concentration 1000.0 nM
[21] = molecular target: LIM domain kinase 1 (Homo sapiens) (UniProt P53667); conditions: Compound concentration 1000.0 nM
[22] = molecular target: Mitogen-activated protein kinase kinase kinase kinase 3 (Homo sapiens) (UniProt Q8IVH8); conditions: Compound concentration 1000.0 nM
[23] = molecular target: Serine/threonine-protein kinase MARK1 (Homo sapiens) (UniProt Q9P0L2); conditions: Compound concentration 1000.0 nM
[24] = molecular target: Dual specificity mitogen-activated protein kinase kinase 1 (Homo sapiens) (UniProt Q02750); conditions: Compound concentration 1000.0 nM
[25] = molecular target: Dual specificity mitogen-activated protein kinase kinase 6 (Homo sapiens) (UniProt P52564); conditions: Compound concentration 1000.0 nM
[26] = tested on: Hepatocyte growth factor receptor (Homo sapiens), P08581 [M1250T]; conditions: Compound concentration 1000.0 nM
[27] = molecular target: Macrophage-stimulating protein receptor (Homo sapiens) (UniProt Q04912); conditions: Compound concentration 1000.0 nM
[28] = molecular target: Serine/threonine-protein kinase Nek3 (Homo sapiens) (UniProt P51956); conditions: Compound concentration 1000.0 nM
[29] = molecular target: Serine/threonine-protein kinase Nek6 (Homo sapiens) (UniProt Q9HC98); conditions: Compound concentration 1000.0 nM
[30] = tested on: Phosphatidylinositol 4,5-bisphosphate 3-kinase catalytic subunit alpha isoform (Homo sapiens), P42336 [C420R]; conditions: Compound concentration 1000.0 nM
[31] = tested on: Phosphatidylinositol 4,5-bisphosphate 3-kinase catalytic subunit alpha isoform (Homo sapiens), P42336 [H1047L]; conditions: Compound concentration 1000.0 nM
[32] = molecular target: Serine/threonine-protein kinase N2 (Homo sapiens) (UniProt Q16513); conditions: Compound concentration 1000.0 nM
[33] = molecular target: cGMP-dependent protein kinase 1 (Homo sapiens) (UniProt Q13976); conditions: Compound concentration 1000.0 nM
[34] = molecular target: Rho-associated protein kinase 2 (Homo sapiens) (UniProt O75116); conditions: Compound concentration 1000.0 nM
[35] = molecular target: Ribosomal protein S6 kinase alpha-5 (Homo sapiens) (UniProt O75582); conditions: Compound concentration 1000.0 nM
[36] = molecular target: Ribosomal protein S6 kinase alpha-1 (Homo sapiens) (UniProt Q15418); conditions: Compound concentration 1000.0 nM
[37] = molecular target: Ribosomal protein S6 kinase alpha-1 (Homo sapiens) (UniProt Q15418); conditions: Compound concentration 1000.0 nM; remark: listed apart in the source
[38] = molecular target: Ribosomal protein S6 kinase alpha-3 (Homo sapiens) (UniProt P51812); conditions: Compound concentration 1000.0 nM
[39] = molecular target: Ribosomal protein S6 kinase beta-1 (Homo sapiens) (UniProt P23443); conditions: Compound concentration 1000.0 nM
[40] = molecular target: Serine/threonine-protein kinase SBK1 (Homo sapiens) (UniProt Q52WX2); conditions: Compound concentration 1000.0 nM
[41] = molecular target: Serine/threonine-protein kinase Sgk1 (Homo sapiens) (UniProt O00141); conditions: Compound concentration 1000.0 nM
[42] = molecular target: Serine/threonine-protein kinase Sgk2 (Homo sapiens) (UniProt Q9HBY8); conditions: Compound concentration 1000.0 nM
[43] = molecular target: Serine/threonine-protein kinase 16 (Homo sapiens) (UniProt O75716); conditions: Compound concentration 1000.0 nM
[44] = molecular target: TRAF2 and NCK-interacting protein kinase (Homo sapiens) (UniProt Q9UKE5); conditions: Compound concentration 1000.0 nM
[45] = molecular target: D(2) dopamine receptor (Homo sapiens) (UniProt P14416); conditions: Compound concentration 10.0 uM

Ribosomal protein S6 kinase alpha-1 (Homo sapiens), sequence (Q15418 whole entry): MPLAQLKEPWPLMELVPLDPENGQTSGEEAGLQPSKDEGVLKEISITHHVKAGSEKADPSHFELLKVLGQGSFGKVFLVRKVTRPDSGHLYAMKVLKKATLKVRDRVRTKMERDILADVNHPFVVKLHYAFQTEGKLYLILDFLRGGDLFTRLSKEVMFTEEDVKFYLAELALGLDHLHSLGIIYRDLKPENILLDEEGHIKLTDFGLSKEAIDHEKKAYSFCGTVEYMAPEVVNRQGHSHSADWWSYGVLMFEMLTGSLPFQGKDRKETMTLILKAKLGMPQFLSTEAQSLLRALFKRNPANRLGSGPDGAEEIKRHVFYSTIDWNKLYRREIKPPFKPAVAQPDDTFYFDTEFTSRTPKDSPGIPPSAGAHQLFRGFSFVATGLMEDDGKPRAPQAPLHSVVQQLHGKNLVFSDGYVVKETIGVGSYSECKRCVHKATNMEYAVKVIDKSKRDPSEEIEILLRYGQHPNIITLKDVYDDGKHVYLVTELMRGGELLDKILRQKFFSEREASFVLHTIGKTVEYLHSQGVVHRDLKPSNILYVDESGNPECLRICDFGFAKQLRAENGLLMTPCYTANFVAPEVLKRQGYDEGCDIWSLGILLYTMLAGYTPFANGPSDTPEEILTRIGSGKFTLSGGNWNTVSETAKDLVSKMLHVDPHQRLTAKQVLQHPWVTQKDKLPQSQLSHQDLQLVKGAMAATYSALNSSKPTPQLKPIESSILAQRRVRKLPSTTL
LIM domain kinase 1 (Homo sapiens), sequence (P53667 whole entry, looked up, the tested form may be a part): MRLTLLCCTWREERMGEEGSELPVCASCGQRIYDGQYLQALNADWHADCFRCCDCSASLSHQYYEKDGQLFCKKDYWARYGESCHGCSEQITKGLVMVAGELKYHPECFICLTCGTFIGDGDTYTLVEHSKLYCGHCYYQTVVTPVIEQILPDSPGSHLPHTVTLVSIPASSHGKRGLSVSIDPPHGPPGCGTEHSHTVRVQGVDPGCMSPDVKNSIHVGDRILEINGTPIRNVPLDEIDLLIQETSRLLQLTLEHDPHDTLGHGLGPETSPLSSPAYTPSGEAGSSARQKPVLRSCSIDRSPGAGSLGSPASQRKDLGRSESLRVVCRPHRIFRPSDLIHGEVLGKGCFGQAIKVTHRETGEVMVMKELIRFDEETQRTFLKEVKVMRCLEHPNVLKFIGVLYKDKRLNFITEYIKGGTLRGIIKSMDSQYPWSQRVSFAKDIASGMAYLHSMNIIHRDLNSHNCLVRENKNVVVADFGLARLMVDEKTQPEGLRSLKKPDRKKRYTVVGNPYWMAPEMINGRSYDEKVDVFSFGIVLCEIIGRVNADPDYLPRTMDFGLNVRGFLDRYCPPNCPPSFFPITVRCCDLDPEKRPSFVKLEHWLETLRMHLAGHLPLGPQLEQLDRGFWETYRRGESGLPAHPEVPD
Myotonin-protein kinase (Homo sapiens), sequence (Q09013 whole entry): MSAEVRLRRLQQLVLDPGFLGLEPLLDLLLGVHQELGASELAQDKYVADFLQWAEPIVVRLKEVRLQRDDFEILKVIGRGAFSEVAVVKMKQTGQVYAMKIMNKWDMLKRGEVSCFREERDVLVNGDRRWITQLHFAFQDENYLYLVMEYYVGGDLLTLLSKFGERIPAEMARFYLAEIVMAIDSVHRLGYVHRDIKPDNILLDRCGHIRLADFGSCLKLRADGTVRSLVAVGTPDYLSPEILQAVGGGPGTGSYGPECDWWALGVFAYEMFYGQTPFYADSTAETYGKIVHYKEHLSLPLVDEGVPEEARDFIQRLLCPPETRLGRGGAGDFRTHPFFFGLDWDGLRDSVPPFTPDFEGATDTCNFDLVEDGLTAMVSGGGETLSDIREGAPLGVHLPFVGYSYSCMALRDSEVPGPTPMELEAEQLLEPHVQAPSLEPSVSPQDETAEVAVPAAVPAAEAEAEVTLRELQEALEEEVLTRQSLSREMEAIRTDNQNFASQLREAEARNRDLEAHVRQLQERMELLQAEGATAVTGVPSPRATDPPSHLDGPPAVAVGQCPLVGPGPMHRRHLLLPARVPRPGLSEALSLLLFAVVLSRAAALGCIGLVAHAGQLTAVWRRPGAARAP
Cyclin-dependent kinase 4 (Homo sapiens), sequence (P11802 whole entry): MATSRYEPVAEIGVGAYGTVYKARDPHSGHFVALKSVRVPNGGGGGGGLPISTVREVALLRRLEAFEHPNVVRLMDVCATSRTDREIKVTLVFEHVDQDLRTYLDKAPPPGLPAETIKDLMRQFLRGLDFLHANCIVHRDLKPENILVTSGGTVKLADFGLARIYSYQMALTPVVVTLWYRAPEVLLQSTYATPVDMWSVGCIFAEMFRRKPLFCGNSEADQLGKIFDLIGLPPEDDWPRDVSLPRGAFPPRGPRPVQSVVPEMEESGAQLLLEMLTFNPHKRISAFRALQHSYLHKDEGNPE
Dual specificity mitogen-activated protein kinase kinase 1 (Homo sapiens), sequence (Q02750 whole entry): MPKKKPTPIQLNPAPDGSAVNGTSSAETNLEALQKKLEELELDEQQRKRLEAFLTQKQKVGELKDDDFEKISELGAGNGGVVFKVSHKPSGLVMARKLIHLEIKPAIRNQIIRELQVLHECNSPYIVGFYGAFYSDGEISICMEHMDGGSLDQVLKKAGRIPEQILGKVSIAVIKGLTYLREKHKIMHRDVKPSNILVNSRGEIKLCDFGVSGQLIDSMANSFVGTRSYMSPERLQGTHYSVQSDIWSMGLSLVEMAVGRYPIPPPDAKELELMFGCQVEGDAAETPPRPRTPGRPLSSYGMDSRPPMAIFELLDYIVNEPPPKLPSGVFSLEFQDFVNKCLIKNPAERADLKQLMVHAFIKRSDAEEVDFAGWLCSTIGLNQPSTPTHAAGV
Casein kinase II subunit alpha' (Homo sapiens), sequence (P19784 whole entry, looked up): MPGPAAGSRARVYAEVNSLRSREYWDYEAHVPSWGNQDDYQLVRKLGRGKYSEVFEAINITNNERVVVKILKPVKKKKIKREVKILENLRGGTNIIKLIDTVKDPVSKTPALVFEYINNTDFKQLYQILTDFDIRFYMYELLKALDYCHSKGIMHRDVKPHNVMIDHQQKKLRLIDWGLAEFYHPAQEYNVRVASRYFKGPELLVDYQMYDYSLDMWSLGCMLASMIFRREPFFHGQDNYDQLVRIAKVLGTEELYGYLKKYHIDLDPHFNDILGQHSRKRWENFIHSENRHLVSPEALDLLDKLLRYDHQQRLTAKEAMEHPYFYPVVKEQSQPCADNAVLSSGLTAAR
Ribosomal protein S6 kinase beta-1 (Homo sapiens), sequence (P23443 whole entry, looked up): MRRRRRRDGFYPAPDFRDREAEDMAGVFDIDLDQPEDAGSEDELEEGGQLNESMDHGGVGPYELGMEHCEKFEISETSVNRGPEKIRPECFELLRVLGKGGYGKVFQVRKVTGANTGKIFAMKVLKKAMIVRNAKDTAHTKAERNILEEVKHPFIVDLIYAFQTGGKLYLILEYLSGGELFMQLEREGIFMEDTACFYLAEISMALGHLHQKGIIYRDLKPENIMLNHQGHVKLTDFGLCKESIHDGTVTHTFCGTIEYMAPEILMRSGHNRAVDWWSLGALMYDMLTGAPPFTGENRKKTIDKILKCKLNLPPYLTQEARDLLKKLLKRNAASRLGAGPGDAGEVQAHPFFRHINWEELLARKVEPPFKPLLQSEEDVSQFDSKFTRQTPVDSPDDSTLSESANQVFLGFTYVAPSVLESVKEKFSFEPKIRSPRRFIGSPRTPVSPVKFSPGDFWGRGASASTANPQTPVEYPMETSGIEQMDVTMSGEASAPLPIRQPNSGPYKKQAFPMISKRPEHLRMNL
Rho-associated protein kinase 2 (Homo sapiens), sequence (O75116 whole entry, looked up): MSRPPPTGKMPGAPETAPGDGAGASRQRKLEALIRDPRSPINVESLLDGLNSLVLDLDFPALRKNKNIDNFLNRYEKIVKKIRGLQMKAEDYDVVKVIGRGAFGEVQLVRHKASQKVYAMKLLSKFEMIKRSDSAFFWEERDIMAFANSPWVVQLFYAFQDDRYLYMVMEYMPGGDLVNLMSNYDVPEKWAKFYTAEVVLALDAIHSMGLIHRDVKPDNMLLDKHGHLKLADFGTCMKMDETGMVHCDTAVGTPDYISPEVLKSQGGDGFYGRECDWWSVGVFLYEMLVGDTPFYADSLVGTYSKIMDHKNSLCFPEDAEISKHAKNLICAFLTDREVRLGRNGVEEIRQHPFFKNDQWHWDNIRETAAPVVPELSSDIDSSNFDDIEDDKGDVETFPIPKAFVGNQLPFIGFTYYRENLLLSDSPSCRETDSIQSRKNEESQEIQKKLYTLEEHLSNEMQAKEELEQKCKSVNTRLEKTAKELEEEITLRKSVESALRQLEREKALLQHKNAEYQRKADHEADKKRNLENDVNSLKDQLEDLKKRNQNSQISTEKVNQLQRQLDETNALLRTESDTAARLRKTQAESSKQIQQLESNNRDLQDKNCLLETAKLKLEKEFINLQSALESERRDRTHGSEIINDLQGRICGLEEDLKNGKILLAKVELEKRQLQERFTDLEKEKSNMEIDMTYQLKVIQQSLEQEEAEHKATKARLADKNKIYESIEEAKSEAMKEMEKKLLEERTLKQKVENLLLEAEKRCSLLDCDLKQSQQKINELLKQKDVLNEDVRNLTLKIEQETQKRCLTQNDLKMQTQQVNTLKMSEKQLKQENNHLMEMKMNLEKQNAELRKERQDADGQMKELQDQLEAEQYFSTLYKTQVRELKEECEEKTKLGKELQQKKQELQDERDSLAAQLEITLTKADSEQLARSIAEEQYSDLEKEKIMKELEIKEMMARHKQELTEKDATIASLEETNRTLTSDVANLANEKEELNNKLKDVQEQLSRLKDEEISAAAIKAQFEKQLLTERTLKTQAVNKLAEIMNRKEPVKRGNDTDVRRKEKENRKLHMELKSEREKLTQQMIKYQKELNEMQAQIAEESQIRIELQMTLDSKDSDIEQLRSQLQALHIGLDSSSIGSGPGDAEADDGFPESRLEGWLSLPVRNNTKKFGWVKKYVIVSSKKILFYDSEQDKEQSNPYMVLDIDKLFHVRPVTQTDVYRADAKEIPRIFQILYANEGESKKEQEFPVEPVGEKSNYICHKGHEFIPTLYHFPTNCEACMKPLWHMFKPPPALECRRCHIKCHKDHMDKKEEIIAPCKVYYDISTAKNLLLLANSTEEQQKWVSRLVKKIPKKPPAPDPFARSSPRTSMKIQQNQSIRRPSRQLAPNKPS

CCC(=O)N[C@@H]1CC[C@H](C(=O)N(C)c2ccc(-c3nc4ccccc4o3)cc2)C1 [BI 99990]
inactive: residual activity [1] 76% | residual activity [2] 100% | residual activity [3] 100% | residual activity [4] 96% | residual activity [5] 100% | residual activity [6] 96% | residual activity [7] 100% | residual activity [8] 100% | residual activity [9] 96% | residual activity [10] 79% | residual activity [11] 100% | residual activity [12] 100% | residual activity [13] 100% | residual activity [14] 100% | residual activity [15] 88% | residual activity [16] 89% | residual activity [17] 100% | residual activity [18] 84% | residual activity [19] 100% | residual activity [20] 100% | residual activity [21] 100% | residual activity [22] 100% | residual activity [23] 86% | residual activity [24] 100% | residual activity [25] 100% | residual activity [26] 100% | residual activity [27] 100% | residual activity [28] 73% | residual activity [29] 99% | residual activity [30] 70% | residual activity [31] 97% | residual activity [32] 100% | residual activity [33] 100% | residual activity [34] 100% | residual activity [35] 97% | residual activity [36] 100% | residual activity [37] 100% | residual activity [38] 91% | residual activity [39] 93% | residual activity [40] 100% | residual activity [41] 100% | residual activity [42] 100% | residual activity [43] 100% | residual activity [44] 100% | inhibition [45] 18.6%

CCC(=O)N[C@H]1CC[C@@H](C(=O)N(C)c2ccc(-c3nc4ccccc4o3)cc2)C1 [BI 99179]
inactive: residual activity [1] 86% | residual activity [2] 94% | residual activity [3] 98% | residual activity [4] 83% | residual activity [5] 87% | residual activity [6] 100% | residual activity [7] 94% | residual activity [8] 95% | residual activity [9] 79% | residual activity [10] 100% | residual activity [11] 99% | residual activity [12] 100% | residual activity [13] 100% | residual activity [14] 100% | residual activity [15] 93% | residual activity [16] 100% | residual activity [17] 88% | residual activity [18] 100% | residual activity [19] 57% | residual activity [20] 89% | residual activity [21] 86% | residual activity [22] 85% | residual activity [23] 100% | residual activity [24] 89% | residual activity [25] 100% | residual activity [26] 92% | residual activity [27] 87% | residual activity [28] 66% | residual activity [29] 85% | residual activity [30] 92% | residual activity [31] 78% | residual activity [32] 100% | residual activity [33] 100% | residual activity [34] 100% | residual activity [35] 68% | residual activity [36] 100% | residual activity [37] 99% | residual activity [38] 88% | residual activity [39] 99% | residual activity [40] 94% | residual activity [41] 100% | residual activity [42] 93% | residual activity [43] 100% | residual activity [44] 100% | inhibition [45] 14.3%
